Measured values as given in article PMC8924211 (Nature Communications, 2022).
Where a chain is given by its changes, count along the chain named.

Assays:
[1] = molecular target: T1, GAL2R mutants (Homo sapiens, UniProt O43603, R184A); test: Calcium assay, HEK293/Gα16 cells, GAL2R mutants; type: cell-based; details: GAL2R R1845.35A
T1 construct: expressed in transfected cells; host or cells: HEK293
T1 sequence (O43603 1-387 R184A): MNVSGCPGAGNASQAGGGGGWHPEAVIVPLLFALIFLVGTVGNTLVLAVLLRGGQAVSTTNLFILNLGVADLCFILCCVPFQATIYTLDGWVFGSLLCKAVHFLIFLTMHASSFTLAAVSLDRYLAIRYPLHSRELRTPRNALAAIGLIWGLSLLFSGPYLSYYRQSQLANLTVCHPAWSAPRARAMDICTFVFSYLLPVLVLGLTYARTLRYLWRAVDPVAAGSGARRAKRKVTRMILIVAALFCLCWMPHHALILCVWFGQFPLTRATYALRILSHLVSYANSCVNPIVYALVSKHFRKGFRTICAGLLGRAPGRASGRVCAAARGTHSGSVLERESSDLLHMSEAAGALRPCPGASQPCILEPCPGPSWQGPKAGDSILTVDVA

[2] = molecular target: T2, GAL2R (Homo sapiens, UniProt O43603); test: Calcium assay, HEK293/Gα16 cells, WT GAL2R; type: cell-based
T2 construct: expressed in transfected cells; host or cells: HEK293/Gα16
T2 sequence (O43603 1-387): T1 sequence (O43603 1-387 R184A) with A184R

[3] = response of 100 μM spexin compared to WT, mean ± S.E.M.

Emax [1, 3]: 32.36±1.6%
EC50 ([1]; spexin, replicate 1): 371.2 nM
Emax ([1]; spexin, replicate 1): 29.7886%
EC50 ([1]; spexin, replicate 2): 973.1 nM
Emax ([1]; spexin, replicate 2): 32.1089%
EC50 ([1]; spexin, replicate 3): 10580 nM
Emax ([1]; spexin, replicate 3): 35.1728%
Emax [2, 3]: 100±4.9%
EC50 ([2]; spexin, replicate 1): 326.8 nM
Emax ([2]; spexin, replicate 1): 101.879%
EC50 ([2]; spexin, replicate 2): 177.5 nM
Emax ([2]; spexin, replicate 2): 107.462%
EC50 ([2]; spexin, replicate 3): 81.38 nM
Emax ([2]; spexin, replicate 3): 90.6585%
Substance: spexin
